How the values were obtained:
[1] = test system: endoplasmic reticulum (microsome) of rat cerebellum; test: 45Ca++ releasing activity from the endoplasmic reticulum; format: biochemical; settings: 1 minute after addition, 30° C., pH 7.2; for calcium ion released of that incorporated into the endoplasmic reticulum: compound at 10 nM
Procedure: (§1) Adenophostins A and B were characterized by their inhibitory activity on [^3 H]-InsP3 binding to rat cerebellar InsP3 receptors, and the ^45 Ca^++ releasing activity from the endoplasmic reticulum, which was prepared from rat cerebellum.
^45 Ca^++ Releasing activity from the endoplasmic reticulum
The ^45 Ca^++ releasing activity from the endoplasmic reticulum was assayed using the method reported by Supattapone et al. [Proc. Natl, Acad. Sci. USA 85, 8747-8750 (1988)] with slight modifications.
The endoplasmic reticulum (microsome) of rat cerebellum was suspended in 10 mM of a HEPES-KOH buffer (pH 7.2) containing 100 mM of potassium chloride, 2.5 mM of magnesium chloride, 1 mM of dithiothreitol (DTT), 10 mM of creatine phosphate, creatine kinase (10 units/ml), 2 μg/ml of oligomycin, 50 μM of calcium chloride containing 1 μCi/ml of ^45 Ca, and 0.12 mM of ethylene glycol bis(2-aminoethyl ether)-N,N,N',N'-tetraacetic acid (EGTA), and the protein concentration in the suspension was adjusted to 0.5 mg/ml. 1 mM of adenosine triphosphate magnesium salt was added to 1 ml of this suspension, and the mixture was incubated for 11 minutes at 30° C. in order to incorporate the ^45 Ca^++ into the endoplasmic reticulum. InsP3, adenophostin A or adenophostin B was then added to release the incorporated ^45 Ca^++ from the endoplasmic reticulum. 10 minutes after the addition of the adenosine triphosphate magnesium salt (1 minute before the addition of the adenophostins or InsP3), and then 12 minutes after the addition of the adenosine triphosphate magnesium salt (1 minute after the addition of the adenophostins or InsP3), 100 μl of the reaction solution was removed, and the sampled solution was filtered through a Milipore filter (HA, […], Product of Milipore) to collect the. endoplasmic reticulum on the filter. The filter was washed with 4 ml of a 10 mM HEPES-KOH buffer (pH 7.2) containing 100 mM of potassium chloride and 1 mM of EGTA, and the radioactivity on the filter was determined by the addition of 5 ml of Pico-flow (a trade name for a product of Packard Co.) agents.

[2] = biological target: T1, rat cerebellar InsP3 receptors (Rattus norvegicus, UniProt P29994); test: Inhibitory activity on [3H]-InsP3 binding to InsP3 receptors; settings: rat cerebellar membrane fraction; 10 nM [3H]-InsP3; 5 minutes, room temperature; pH 8.0; read-out: IC50 (concentration required to inhibit the binding of [3H]-InsP3 by 50%)
T1 construct: A rat cerebellar membrane fraction was homogenized; from tissue; host or cells: rat cerebellum, membrane fraction
T1 sequence (P29994 whole entry): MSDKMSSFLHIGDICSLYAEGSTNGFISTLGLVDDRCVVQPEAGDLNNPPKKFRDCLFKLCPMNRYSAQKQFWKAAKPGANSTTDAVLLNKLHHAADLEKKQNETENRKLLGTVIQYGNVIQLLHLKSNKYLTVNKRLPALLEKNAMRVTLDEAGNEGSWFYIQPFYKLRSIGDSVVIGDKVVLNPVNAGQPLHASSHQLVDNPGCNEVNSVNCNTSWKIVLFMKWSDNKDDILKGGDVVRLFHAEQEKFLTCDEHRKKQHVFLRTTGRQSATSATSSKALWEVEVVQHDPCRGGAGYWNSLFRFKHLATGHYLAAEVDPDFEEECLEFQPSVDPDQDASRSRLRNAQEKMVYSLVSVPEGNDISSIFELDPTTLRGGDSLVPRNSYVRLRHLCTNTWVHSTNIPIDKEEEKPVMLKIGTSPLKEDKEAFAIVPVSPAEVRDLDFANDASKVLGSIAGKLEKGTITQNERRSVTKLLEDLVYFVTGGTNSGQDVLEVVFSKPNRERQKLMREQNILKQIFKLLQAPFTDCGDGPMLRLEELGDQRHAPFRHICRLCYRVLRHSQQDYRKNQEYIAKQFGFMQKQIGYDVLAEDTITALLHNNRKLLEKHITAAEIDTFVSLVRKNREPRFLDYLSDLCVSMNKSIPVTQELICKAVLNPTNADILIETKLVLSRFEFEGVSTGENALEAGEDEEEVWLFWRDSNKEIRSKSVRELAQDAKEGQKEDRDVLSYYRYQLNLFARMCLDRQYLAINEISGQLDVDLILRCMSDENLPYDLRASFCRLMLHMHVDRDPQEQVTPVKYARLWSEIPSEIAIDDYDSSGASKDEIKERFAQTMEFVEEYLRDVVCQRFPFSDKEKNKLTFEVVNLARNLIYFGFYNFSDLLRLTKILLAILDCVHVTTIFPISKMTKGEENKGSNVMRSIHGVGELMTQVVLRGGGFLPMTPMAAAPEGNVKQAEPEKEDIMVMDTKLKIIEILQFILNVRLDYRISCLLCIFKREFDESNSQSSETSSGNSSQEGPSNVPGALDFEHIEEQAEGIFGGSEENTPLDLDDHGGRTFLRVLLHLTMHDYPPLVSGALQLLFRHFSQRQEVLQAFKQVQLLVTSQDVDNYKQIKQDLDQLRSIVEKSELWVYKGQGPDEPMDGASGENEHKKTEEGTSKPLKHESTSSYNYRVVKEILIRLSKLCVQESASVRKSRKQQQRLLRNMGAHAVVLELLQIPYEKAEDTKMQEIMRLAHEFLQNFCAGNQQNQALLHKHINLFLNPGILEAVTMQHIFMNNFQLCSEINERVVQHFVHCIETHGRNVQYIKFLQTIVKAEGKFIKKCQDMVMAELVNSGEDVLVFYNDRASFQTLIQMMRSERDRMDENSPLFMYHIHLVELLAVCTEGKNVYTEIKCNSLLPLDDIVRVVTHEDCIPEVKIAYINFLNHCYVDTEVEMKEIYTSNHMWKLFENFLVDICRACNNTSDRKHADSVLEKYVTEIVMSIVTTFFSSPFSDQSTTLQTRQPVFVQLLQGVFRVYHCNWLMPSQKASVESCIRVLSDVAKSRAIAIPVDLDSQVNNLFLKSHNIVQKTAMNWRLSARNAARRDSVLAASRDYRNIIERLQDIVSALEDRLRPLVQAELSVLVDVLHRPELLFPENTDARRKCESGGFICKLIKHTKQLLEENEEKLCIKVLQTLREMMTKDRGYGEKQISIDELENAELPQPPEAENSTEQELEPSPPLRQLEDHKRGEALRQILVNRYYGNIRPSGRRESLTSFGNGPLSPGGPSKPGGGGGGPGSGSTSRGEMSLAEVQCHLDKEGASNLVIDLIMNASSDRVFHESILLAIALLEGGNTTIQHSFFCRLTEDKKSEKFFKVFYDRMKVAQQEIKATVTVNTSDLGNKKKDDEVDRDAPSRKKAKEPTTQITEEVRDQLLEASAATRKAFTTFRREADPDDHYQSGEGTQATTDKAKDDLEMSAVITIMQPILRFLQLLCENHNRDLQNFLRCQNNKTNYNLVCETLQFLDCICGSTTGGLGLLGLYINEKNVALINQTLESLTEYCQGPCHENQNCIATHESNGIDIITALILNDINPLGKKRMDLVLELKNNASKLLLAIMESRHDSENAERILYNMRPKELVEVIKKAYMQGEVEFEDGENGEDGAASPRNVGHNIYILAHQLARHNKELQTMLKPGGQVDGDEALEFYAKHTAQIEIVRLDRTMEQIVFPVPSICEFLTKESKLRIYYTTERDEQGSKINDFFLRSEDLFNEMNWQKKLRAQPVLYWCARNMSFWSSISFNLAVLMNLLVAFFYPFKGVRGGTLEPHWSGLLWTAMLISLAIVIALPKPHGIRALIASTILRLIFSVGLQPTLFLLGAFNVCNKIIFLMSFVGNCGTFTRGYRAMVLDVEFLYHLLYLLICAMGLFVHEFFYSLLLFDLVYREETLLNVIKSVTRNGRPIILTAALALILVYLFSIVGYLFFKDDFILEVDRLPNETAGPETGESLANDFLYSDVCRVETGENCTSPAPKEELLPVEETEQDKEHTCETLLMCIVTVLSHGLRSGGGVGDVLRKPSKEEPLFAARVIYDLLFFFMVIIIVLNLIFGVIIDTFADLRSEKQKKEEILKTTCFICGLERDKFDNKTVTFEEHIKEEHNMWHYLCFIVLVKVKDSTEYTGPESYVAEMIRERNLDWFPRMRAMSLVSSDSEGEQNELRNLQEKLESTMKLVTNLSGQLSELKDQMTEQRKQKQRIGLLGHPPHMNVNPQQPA
Procedure: as §1
Inhibitory activity on [^3 -H]-InSP3 binding to InsP3 receptors
The inhibitory activity of [^3 H]-InsP3 binding was assayed according to the method of Worley et al. [J. Biol. Chem. 262, 12132-12136 (1987)].
A rat cerebellar membrane fraction was homogenized in 50 mM of Tris-HC1 (pH 8.0) and 1 mM of ethylenediaminetetraacetic acid, and the protein concentration in the homogenized material was adjusted to 0.6 mg/ml. 1 ml of this cerebellar homogenate was taken and 10 nM of [^3 H]-InsP3and either adenophostin A or adenophostin B were added to it. The mixture was incubated for 5 minutes at room temperature, and then centrifuged for 5 minutes at 12,000 rpm at a temperature of 4° C. The supernatant was removed and the precipitated cerebellar membrane fraction was dissolved in 5 ml of Pico-flow (a trade name for a product of Packard Co.) to determine its radioactivity. The bound [^3 H]-InsP3 was then determined.
IC50 indicates the concentration required to inhibit the binding of [^3 H]-InsP3 by 50%.

Solubility = format: physicochemical; settings: for Solubility in lower alcohols: such as methanol or ethanol

Row | IC50 [2] | Solubility in acetone, ethyl acetate or chloroform (Solubility) | Solubility in lower alcohols (Solubility) | Solubility in water and dimethyl sulfoxide (Solubility) | SMILES | calcium ion released of that incorporated into the endoplasmic reticulum (adenophostin activities at 10 nM stated equal to that of InsP3) ([1]; InsP3 at 10 μM) | calcium ion released of that incorporated into the endoplasmic reticulum [1]
1 |  |  |  |  | O=P(O)(O)O[C@@H]1[C@H](O)[C@H](O)[C@@H](OP(=O)(O)O)[C@H](OP(=O)(O)O)[C@H]1O [InsP3, inositol 1,4,5-trisphosphate, reference compound] | 35% | 
2 | 6 nM | insoluble | slightly soluble | Soluble | Nc1ncnc2c1ncn2[C@@H]1O[C@H](CO)[C@@H](O[C@H]2O[C@H](CO)[C@@H](OP(=O)(O)O)[C@H](OP(=O)(O)O)[C@H]2O)[C@H]1OP(=O)(O)O [adenophostin A] |  | 35%
3 | 8 nM | insoluble | slightly soluble | Soluble | CC(=O)OC[C@H]1O[C@H](O[C@H]2[C@@H](OP(=O)(O)O)[C@H](n3cnc4c(N)ncnc43)O[C@@H]2CO)[C@H](O)[C@@H](OP(=O)(O)O)[C@@H]1OP(=O)(O)O [adenophostin B] |  | 35%

From patent US5436231A, “Adenophostins” (Sankyo Company, Limited, priority 1991, dated 1995)
